Source: PubChem BioAssay AID256 (DTP/NCI, 2004)
Toxic doses and inconclusive results are not listed.

System: CD2F1 mice, L1210 leukemia ip, survival T/C
Assay: NCI In Vivo Anticancer Drug Screen. Data for tumor model L1210 Leukemia (intraperitoneal) in CD2F1 (CDF1) mice
Conditions: higher = longer survival
Method in brief: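 Compound-dosed mice with transplantable tumor versus matched vehicle controls; endpoint ratio T/C reported.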

[1] = endpoint: mean survival time, dose: 100.0 mg/kg/injection, schedule: Q04DX002 (ip), vehicle: saline with Tween-80
[2] = endpoint: mean survival time, dose: 200.0 mg/kg/injection, schedule: Q04DX002 (ip), vehicle: saline with Tween-80
[3] = endpoint: mean survival time, dose: 400.0 mg/kg/injection, schedule: Q04DX002 (ip), vehicle: saline with Tween-80
[4] = endpoint: mean survival time, dose: 100.0 mg/kg/injection, schedule: Q01DX009 (ip), vehicle: saline with Tween-80
[5] = endpoint: mean survival time, dose: 200.0 mg/kg/injection, schedule: Q01DX009 (ip), vehicle: saline with Tween-80
[6] = endpoint: mean survival time, dose: 400.0 mg/kg/injection, schedule: Q01DX009 (ip), vehicle: saline with Tween-80
[7] = endpoint: mean survival time, dose: 100.0 mg/kg/injection, schedule: Q04DX003 (ip), vehicle: saline with Tween-80
[8] = endpoint: mean survival time, dose: 200.0 mg/kg/injection, schedule: Q04DX003 (ip), vehicle: saline with Tween-80
[9] = endpoint: mean survival time, dose: 400.0 mg/kg/injection, schedule: Q04DX003 (ip), vehicle: saline with Tween-80
[10] = endpoint: mean survival time, dose: 100.0 mg/kg/injection, schedule: Q01DX001 (ip), vehicle: saline with Tween-80
[11] = endpoint: mean survival time, dose: 75.0 mg/kg/injection, schedule: Q01DX001 (ip), vehicle: saline
[12] = endpoint: mean survival time, dose: 150.0 mg/kg/injection, schedule: Q01DX001 (ip), vehicle: saline
[13] = endpoint: mean survival time, dose: 100.0 mg/kg/injection, schedule: Q04DX003 (ip), vehicle: saline
[14] = endpoint: mean survival time, dose: 200.0 mg/kg/injection, schedule: Q04DX003 (ip), vehicle: saline
[15] = endpoint: mean survival time, dose: 50.0 mg/kg/injection, schedule: Q01DX009 (ip), vehicle: saline with Tween-80
[16] = endpoint: mean survival time, dose: 50.0 mg/kg/injection, schedule: Q01DX009 (ip), vehicle: saline
[17] = endpoint: mean survival time, dose: 100.0 mg/kg/injection, schedule: Q01DX009 (ip), vehicle: saline
[18] = endpoint: mean survival time, dose: 200.0 mg/kg/injection, schedule: Q01DX009 (ip), vehicle: saline
[19] = endpoint: mean survival time, dose: 100.0 mg/kg/injection, schedule: Q01DX001 (ip), vehicle: saline
[20] = endpoint: mean survival time, dose: 200.0 mg/kg/injection, schedule: Q01DX001 (ip), vehicle: saline
[21] = endpoint: mean survival time, dose: 400.0 mg/kg/injection, schedule: Q01DX001 (ip), vehicle: saline

COc1c(C)c2c(c3c1CC(O)O3)C(=O)OC2 (centres undefined)
T/C [1]: 112 % of control
T/C [2]: 103 % of control
T/C [3]: 106 % of control

CSc1cccc(NC(=O)OCCOc2ccc(NC(C)=O)cc2)c1
T/C [4]: 101 % of control
T/C [5]: 97 % of control
T/C [6]: 93 % of control

c1ccc(Oc2cc[c]([Sn]([c]3ccccc3)([c]3ccccc3)[c]3ccc(Oc4ccccc4)cc3)cc2)cc1
T/C [4]: 106 % of control
T/C [5]: 100 % of control
T/C [6]: 98 % of control

Cc1ccc(C)c(N=Nc2ccc(O)cc2)c1
T/C [7]: 104 % of control
T/C [8]: 100 % of control
T/C [9]: 105 % of control

CCC(C)C(C)OC(=O)c1cc([N+](=O)[O-])cc([N+](=O)[O-])c1 (centres undefined)
T/C [4]: 105 % of control
T/C [7]: 92 % of control
T/C [5]: 104 % of control
T/C [8]: 97 % of control
T/C [6]: 90 % of control
T/C [9]: 103 % of control

CCOC(=O)N1CCc2nc3cc(OC)ccc3cc21
T/C [10]: 103 % of control
T/C (endpoint: mean survival time, dose: 200.0 mg/kg/injection, schedule: Q01DX001 (ip), vehicle: saline with Tween-80): 98 % of control
T/C (endpoint: mean survival time, dose: 400.0 mg/kg/injection, schedule: Q01DX001 (ip), vehicle: saline with Tween-80): 98 % of control

NCCCOCCOCCOCCOCCCN
T/C (endpoint: mean survival time, dose: 25.0 mg/kg/injection, schedule: Q04DX002 (ip), vehicle: saline): 105 % of control
T/C (endpoint: mean survival time, dose: 50.0 mg/kg/injection, schedule: Q04DX002 (ip), vehicle: saline): 101 % of control
T/C (endpoint: mean survival time, dose: 100.0 mg/kg/injection, schedule: Q01DX001 (ip), vehicle: saline sonified): 97 % of control
T/C (endpoint: mean survival time, dose: 100.0 mg/kg/injection, schedule: Q04DX002 (ip), vehicle: saline): 101 % of control

COc1cc2c(cc1O)C(C)NCC2 (centres undefined)
T/C [11]: 109 % of control
T/C [12]: 101 % of control

CC(C)=CCO
T/C [13]: 105 % of control
T/C [14]: 94 % of control
T/C (endpoint: mean survival time, dose: 400.0 mg/kg/injection, schedule: Q04DX003 (ip), vehicle: saline): 94 % of control

OCC1OC(c2ccccc2)OC(CO)C(O)C1O (centres undefined)
T/C [15]: 96 % of control
T/C [4]: 98 % of control
T/C [5]: 94 % of control

Cc1cc(C)c(O)c(C)c1
T/C (endpoint: mean survival time, dose: 50.0 mg/kg/injection, schedule: Q01DX009 (ip), vehicle: Klucel (hydroxypropylcellulose) (HPC)): 96 % of control
T/C (endpoint: mean survival time, dose: 100.0 mg/kg/injection, schedule: Q01DX009 (ip), vehicle: Klucel (hydroxypropylcellulose) (HPC)): 93 % of control
T/C (endpoint: mean survival time, dose: 200.0 mg/kg/injection, schedule: Q01DX009 (ip), vehicle: Klucel (hydroxypropylcellulose) (HPC)): 93 % of control

COC(=N)C/C=C/CC(=N)OC
T/C [7]: 98 % of control
T/C [8]: 95 % of control
T/C [9]: 98 % of control

CCCCCC(O)C(C)C (centres undefined)
T/C [11]: 98 % of control
T/C [12]: 91 % of control

CCOC(=O)C(C(=O)OCC)C(C[N+](=O)[O-])c1ccccc1 (centres undefined)
T/C [16]: 92 % of control
T/C [17]: 116 % of control
T/C [18]: 96 % of control

CC(=O)OC1C2C=CC1C1CC21 (centres undefined)
T/C [19]: 96 % of control
T/C [20]: 100 % of control
T/C [21]: 98 % of control

CN=C(N)N(C)C
T/C [19]: 101 % of control
T/C [20]: 101 % of control
T/C [21]: 95 % of control

CN=C(N)c1ccc(N=C(N)c2ccc(NC(=O)c3ccc(C(N)=NC)cc3)cc2)cc1
T/C (endpoint: mean survival time, dose: 30.0 mg/kg/injection, schedule: Q01DX Z (ip), vehicle: water): 151 % of control

O=C(O)c1ccc([As](=O)(O)O)cc1[N+](=O)[O-]
T/C (endpoint: mean survival time, dose: 50.0 mg/kg/injection, schedule: Q04DX003 (ip), vehicle: saline): 105 % of control
T/C [13]: 97 % of control
T/C [14]: 95 % of control

CCCCCCCCCCCOc1ccccc1Cl
T/C [1]: 90 % of control
T/C [2]: 93 % of control
T/C [3]: 93 % of control

S=C(Nc1ccccc1)NC1CCCCC1
T/C [7]: 100 % of control
T/C [8]: 102 % of control
T/C [9]: 97 % of control

CN(C)c1ccc(/C=N/NC(=O)COc2ccccc2)cc1
T/C [4]: 91 % of control
T/C [5]: 89 % of control

Cc1ccc(NC(=O)Nc2ccccc2F)cc1NC(=O)Nc1ccccc1F
T/C [7]: 100 % of control
T/C [8]: 104 % of control
T/C [9]: 100 % of control

Nc1nc2c(C(=O)N3CCCC3)nnn2c2ccccc12
T/C (endpoint: median survival time, dose: 6.25 mg/kg/injection, schedule: Q01DX009 (ip), vehicle: saline with Tween-80): 100 % of control
T/C (endpoint: median survival time, dose: 12.5 mg/kg/injection, schedule: Q01DX009 (ip), vehicle: saline with Tween-80): 98 % of control
T/C (endpoint: median survival time, dose: 25.0 mg/kg/injection, schedule: Q01DX009 (ip), vehicle: saline with Tween-80): 97 % of control
T/C (endpoint: median survival time, dose: 50.0 mg/kg/injection, schedule: Q01DX009 (ip), vehicle: saline with Tween-80): 95 % of control
T/C (endpoint: median survival time, dose: 100.0 mg/kg/injection, schedule: Q01DX009 (ip), vehicle: saline with Tween-80): 95 % of control

O=C(CC(O)(C(F)(F)F)C(F)(F)F)c1ccc(Cl)c2ccccc12
T/C (endpoint: mean survival time, dose: 100.0 mg/kg/injection, schedule: Q01DX001 (ip), vehicle: other): 102 % of control
T/C (endpoint: mean survival time, dose: 200.0 mg/kg/injection, schedule: Q01DX001 (ip), vehicle: other): 100 % of control
T/C (endpoint: mean survival time, dose: 400.0 mg/kg/injection, schedule: Q01DX001 (ip), vehicle: other): 96 % of control

COCc1c(C)c(C)c(COC)c(C)c1C
T/C [16]: 95 % of control
T/C [17]: 97 % of control
T/C [18]: 88 % of control

c1ccc2sc(SCCSc3nc4ccccc4s3)nc2c1
T/C (endpoint: mean survival time, dose: 25.0 mg/kg/injection, schedule: Q04DX002 (ip), vehicle: saline with Tween-80): 107 % of control
T/C [1]: 88 % of control
T/C [2]: 87 % of control
T/C [3]: 87 % of control

CC(O)CC1CCCC(CC(C)O)N1 (centres undefined)
T/C (endpoint: mean survival time, dose: 5.0 mg/kg/injection, schedule: Q01DX001 (ip), vehicle: saline): 103 % of control
T/C (endpoint: mean survival time, dose: 10.0 mg/kg/injection, schedule: Q01DX001 (ip), vehicle: saline): 97 % of control
T/C (endpoint: mean survival time, dose: 20.0 mg/kg/injection, schedule: Q01DX001 (ip), vehicle: saline): 103 % of control
T/C (endpoint: mean survival time, dose: 40.0 mg/kg/injection, schedule: Q01DX001 (ip), vehicle: saline): 105 % of control
T/C [11]: 98 % of control
T/C (endpoint: mean survival time, dose: 300.0 mg/kg/injection, schedule: Q01DX001 (ip), vehicle: saline): 102 % of control

c1ccc(C2=C(c3ccccc3)OC(c3ccccc3)=C(c3ccccc3)O2)cc1
T/C (endpoint: mean survival time, dose: 25.0 mg/kg/injection, schedule: Q01DX009 (ip), vehicle: saline with Tween-80): 92 % of control
T/C (endpoint: mean survival time, dose: 50.0 mg/kg/injection, schedule: Q01DX001 (ip), vehicle: saline with Tween-80): 87 % of control
T/C [15]: 102 % of control
T/C [10]: 89 % of control
T/C [4]: 88 % of control

CCOC(=O)C1=C(C)NC(=O)NN1C(=O)OCC
T/C (endpoint: mean survival time, dose: 12.5 mg/kg/injection, schedule: Q01DX009 (ip), vehicle: saline): 94 % of control
T/C (endpoint: mean survival time, dose: 25.0 mg/kg/injection, schedule: Q01DX009 (ip), vehicle: saline): 87 % of control
T/C [16]: 94 % of control
